How the values were obtained:
Type in all cases: in vivo, human
[1] = test system: post-stroke patients; experiment: Controlled clinical trial against placebo, Apathy Evaluation Scale
Protocol: Apathy Evaluation Scale (AES) is used as a measure of apathy severity. Items and factor structure of AES are listed in Marin, et al. (Psychiatry Res. 1991; 38(2):143-62). The assessment, the impairment, as well as and the need of recovery of apathy and cognitive function after stroke are illustrated by Robert G. Robinson “The Clinical Neuropsychiatry of Stroke”, 1998, Cambridge University Press, pages 143, 222-225 and 292-293.
(§1) In this trial, nefiracetam was administered orally to 103 post-stroke patients, who all have some degree of depression, for up to twelve weeks after the vascular event. Concurrently, 56 patients received placebo (placebo group). Of the 103 post-stroke patients treated with nefiracetam, 55 received 600 mg daily (600 mg group), and 48 received 900 mg daily (900 mg group). The three groups of patients were followed for up to 12 weeks, and evaluated at the end of week 4, the end of week 8, and the end of week 12, by measuring the Apathy Evaluation Scale (a symptom scale for measuring apathy), and by measuring SDMT (for measuring cognitive function).

[2] = test system: post-stroke patients; experiment: Controlled clinical trial against placebo, symbol digit modality test (SDMT), cognitive function; settings: for change in cognitive function (SDMT): at 4 weeks, placebo 3.2; for average improvement in cognitive function (SDMT): last visit, placebo 4.2; for improvement in the SDMT scale: patients with cortical strokes, week 12, placebo 2.7
Source text: Cognitive function can be measured using a tool called the symbol digit modality test (SDMT). In this test, patients have a legend which links each digit to a specific graphical, non-text symbol. The patients have a pre-specified, fixed period of time to match, in writing, as many digits to a list of symbols as possible. The number of correctly matched digits to symbols provides a measure of a range of cognitive functions, including executive function, attention, memory, and motor function (Joy, et.al. Arch Clin Neuropsychol. 19:759-67, 2004; Joy, et.al. Clin Neuropsychol. 17:182-94; 2003)
as §1

[3] = test system: post-stroke patients having moderate to severe depression; experiment: Apathy Scale (AS) in post-stroke patients having moderate to severe depression; settings: 600 or 900 mg/day oral, 12 weeks, especially high dose
Source text: Apathy Scale (AS) is an abbreviated version of the AES. Items and scoring of Papthy Scale can be found, for example, at Starkstein, et al., J Neuropsychiatry Clin. Neurosciences, 4: 134-139 (1992).
(§2) In 151 post-stroke patients having moderate to severe depression, the intervention-free data of Apathy Scale (AS), as a valid measure of apathy, and of Hamilton Rating Scale of Depression (HAM-D) and Beck Depression Inventory (BDI), as valid measures of depression, were collected and analyzed using the method of confirmatory factor analysis. HAM-D and BDI are fully validated and are widely used measures of the severity of depression. HAM-D (Hamilton, J Neurol. Neurosurg. Psychiatry. 23:56-62, 1960) is rated by a professional. BDI (Arch Gen Psychiatry. 4:561-571, 1961) is rated by a patient.
(§3) The 151 patients, who were evaluated at least once after treatment, included the 103 patients studied in Example 1. The 151 patients were divided in three groups each orally receiving placebo (51 patients) or nefiracetam at 600 mg/day (54 patients) or nefiracetam at 900 mg/day (46 patients).
(§4) The data at the end of 12 weeks were analyzed and summarized as follows: […]

[4] = test system: post-stroke patients having moderate to severe depression; experiment: Hamilton Rating Scale of Depression (HAM-D) in post-stroke patients having moderate to severe depression; settings: 600 or 900 mg/day oral; 12 weeks; consistent across various severity of baseline apathy
Source text: as §2, §3, §4

[5] = 600 and 900 mg daily oral, up to 12 weeks

## Cc1cccc(C)c1NC(=O)CN1CCCC1=O [nefiracetam]
[1]; 600 mg daily oral, at 4 weeks, placebo 1.4
  improvement in apathy (Apathy Evaluation Scale): 1.9 point
[1]; 600 mg daily oral, cortical stroke patients, last visit carried forward, placebo 1.0
  average improvement in apathy (Apathy Evaluation Scale): 3.4
[1]; 600 mg daily oral, cortical strokes and significant baseline apathy (greater than 18), last visit, placebo 5.4
  improvement in apathy (Apathy Evaluation Scale): 9.4 points
[1]; 600 mg daily oral, last visit (12 weeks), placebo 1.4
  average improvement in apathy (Apathy Evaluation Scale): 2.1 points
[1]; 600 mg daily oral, patients treated within 28 days of the stroke, placebo 0.6
  average improvement in apathy (Apathy Evaluation Scale): 1.3 points
[1]; 900 mg daily oral, at 4 weeks, placebo 1.4
  improvement in apathy (Apathy Evaluation Scale): 1.9 point
[1]; 900 mg daily oral, cortical stroke patients, last visit carried forward, placebo 1.0
  average improvement in apathy (Apathy Evaluation Scale): 5.2 points
[1]; 900 mg daily oral, cortical strokes and significant baseline apathy (greater than 18), last visit, placebo 5.4
  improvement in apathy (Apathy Evaluation Scale): 11.7 points
[1]; 900 mg daily oral, last visit (12 weeks), placebo 1.4
  average improvement in apathy (Apathy Evaluation Scale): 3.4 points
[1]; 900 mg daily oral, patients treated within 28 days of the stroke, placebo 0.6
  average improvement in apathy (Apathy Evaluation Scale): 6.1 points
[1]; [5]
  change in apathy syndrome in comparison to the placebo group (in words): dose-dependent and time-dependent change in apathy syndrome
[2]; 600 mg daily oral
  change in cognitive function (SDMT): 4.1 point
  average improvement in cognitive function (SDMT): 5.7 points
  improvement in the SDMT scale: 7 points
[2]; 900 mg daily oral
  change in cognitive function (SDMT): 4.4 point
  average improvement in cognitive function (SDMT): 6.6 points
  improvement in the SDMT scale: 14.2 points
[2]; [5]
  improvements in cognitive function as measured by the SDMT (in words): dose-dependent and time-dependent improvements in cognitive function
[3]; consistent across moderate to severe and severe depression
  reduction in apathy measured by the Apathy Scale versus placebo (in words): more reduction in apathy than did patients on placebo
[3]; consistent across various severity of baseline apathy
  reduction in apathy measured by the Apathy Scale versus placebo (in words): more reduction in apathy than did patients on placebo
[4]
  reduction in depression measured by HAM-D versus placebo (in words): patients on placebo showed slightly more reduction in depression than did patients on active treatment

Reference: US20100048634A1, “METHOD FOR TREATING APATHY SYNDROME” (priority 2005, published 2010)
